Assay: gradient 5% acetonitrile 3 min, to 50% in 2 min, to 85% in 15 min, held 3 min, 100 µL/min
Conditions: column: Zorbax Extend-C18 2.1 x 50 mm; eluents: water / acetonitrile, 0.1% formic acid
Procedure, shortened: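 A Zorbax Extend-C18 column (2.1 × 50 mm, 1.8 μm) run at 100 μL/min with water and acetonitrile, both containing 0.1% formic acid, separated mixtures of ~100 pure standards. The HPLC was coupled to a quadrupole time-of-flight mass spectrometer operated in positive and negative ionization mode, with dead and dwell volumes of 40 μL and 900 μL. Each retention time was taken from a computationally picked adduct peak that was then manually inspected.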

| Compound | RP-LC retention time [s] |
| --- | --- |
| COc1ccc2oc(-c3ccccc3)c(C(=O)Nc3nccs3)c2c1 | 931 |
| COCCN1C(=O)c2cccn2CC1CNC(=O)c1sc(C)nc1C (stereo not drawn) | 606 |
| COc1cc(NC(=O)CN2C(=O)C(C)(C)c3ccccc32)cc(OC)c1OC | 784 |
| O=C(Cc1ccc(NC(=O)Nc2ccccc2Cl)cc1)NCC(F)(F)F | 696 |
| CNC(=O)[C@@H]1C[C@@H](O)CN1C1CCN(C(=O)C2CCCCC2)CC1 | 577 |
| C#CCOCC1CCN(C(=O)Cc2noc3ccccc23)CC1 | 761 |
| COc1ccccc1-c1csc(NC(=O)c2sc(C)nc2C)n1 | 900 |
| O=C(C1CCN(c2nnc(-c3ccccc3)o2)CC1)N1CCOCC1 | 668 |
| CC(C)(C)C(=O)Nc1nc2cc3c(cc2s1)OCO3 | 823 |
| COc1ccc(-c2c(C)noc2NC(C)=O)cc1S(=O)(=O)N(C)c1ccc(C)cc1 | 830 |
| CCOC(=O)c1nc(Nc2ccc(C)c(C)c2)c2ccccc2n1 | 934 |
| O=C(c1cccs1)N1CCC(c2nncn2-c2ccccc2)CC1 | 626 |
| Cc1cc(Cl)ccc1NC(=O)c1cc(C2CC2)on1 | 1040 |
| CCOC(=O)C1CCN(C(=O)Cn2c3ccccc3c3cnn(C)c(=O)c32)CC1 | 775 |
| Cc1ccc(NC(=O)CN2C(=O)CCS(=O)(=O)c3ccccc32)c(C)c1 | 768 |
| COc1ccc(C(=O)N2CCN(c3ccc(-c4nc(C)cs4)cn3)CC2)cc1 | 805 |
| Fc1ccccc1-c1noc(-c2nc(-c3ccncc3)no2)n1 | 951 |
| O=C(Cn1cccc(-c2nc(-c3ccc(Br)cc3)no2)c1=O)Nc1ccc(F)cc1 | 980 |
| OCCn1cc(-c2cnc3nnn(Cc4ccc5ncccc5c4)c3n2)cn1 | 620 |
| COc1ccc2nc(C(=O)NCc3ccccc3F)cn2n1 | 806 |
| CCCCn1cc(S(=O)(=O)Nc2cccc(Cl)c2)c2cccnc21 | 1020 |
| CCOc1ccccc1NC(=O)C1CCN(S(C)(=O)=O)c2ccccc2O1 (stereo not drawn) | 994 |
| COCCN1CCC(N2CCCN(C(=O)C3COc4ccccc4O3)CC2)C1=O (stereo not drawn) | 560 |
| Cc1ccn(-c2ccc(Nc3ccc(NC(=O)c4ccc(Br)o4)cc3)nn2)n1 | 776 |

Further lines, results first:

| RP-LC retention time [s] | Compound |
| --- | --- |
| 688 | CCN(CC)CCNC(=O)C1CCCN(c2ncc(-c3cccc(F)c3)cn2)C1 (stereo not drawn) |
| 643 | O=C(NCCCN1CCN(c2ccccc2)CC1)C1CCCN(c2nc3cccnc3s2)C1 (stereo not drawn) |
| 899 | O=C(NC(c1ccccc1)c1nnc(N2CCCC2)o1)c1ccc(F)c(Cl)c1 (stereo not drawn) |
| 871 | Cc1ccccc1CNC(=O)C1CCCN(S(=O)(=O)c2c[nH]c(C(=O)N3CCCCCC3)c2)C1 (stereo not drawn) |
| 603 | CC(C)C1c2nccn2CCCN1C(=O)Cn1c(=O)oc2ccccc21 (stereo not drawn) |
| 779 | CCC(=O)N1CCc2cc(N3CC(C(=O)Nc4ccc(OC)c(Cl)c4)CC3=O)ccc21 (stereo not drawn) |
| 924 | O=C(Nc1ccc(F)cc1Cl)c1cccn1Cc1noc(C2CC2)n1 |
| 1210 | CCc1nc(-c2csc(S(=O)(=O)N3CCCC(C(=O)Nc4ccc(C(C)C)cc4)C3)c2)no1 (stereo not drawn) |
| 578 | COc1ccc(NC(=O)c2cnc(N3CCN(C)CC3)nc2N)cc1 |
| 590 | CCCNc1cc(N2CCC(CCC(=O)NCCOC)CC2)ncn1 |
| 688 | CC(O)CNC(=O)C1CCCN(c2ccc(Sc3ccc(Br)cc3)nn2)C1 (stereo not drawn) |
| 982 | CC1CCN(C(=O)CN2c3ccc(F)cc3-c3ccccc3S2(=O)=O)CC1 |
| 735 | Cc1ccc2nc(-c3ccc(C)c(NC(=O)C4CCCCC4)c3)[nH]c2c1 |
| 767 | CC(C(=O)NCc1ccco1)C1CCN(C(=O)c2cc3ccccc3[nH]2)CC1 (stereo not drawn) |

— the METLIN SMRT retention time set (Domingo-Almenara et al. 2019)
